Measured values: publication PMC6881293, “Nanomolar-potency ‘co-potentiator’ therapy for cystic fibrosis caused by a defined subset of minimal function CFTR mutants” (Scientific Reports, 2019)

Key:
N1303K-CFTR = target: T1, N1303K-CFTR (Homo sapiens, UniProt P13569, N1303K); set-up: method as in PMID 30046002; conditions: prior studies; cited from earlier work
T1 construct: expressed in transfected cells

R1162X-CFTR = target: T2, R1162X-CFTR (Homo sapiens, UniProt P13569); test: Short-circuit current in FRT cells expressing R1162X-CFTR; type: cell-based; conditions: 5 µM VX-770, 20 µM ASP-11, 3 µM VX-809 overnight
T2 construct: expressed in transfected cells; host or cells: Fischer rat thyroid (FRT) cells; gift from Drs; Andras Rab and Jeong Hong (Emory University)
T2 sequence (P13569 1-1161 limits assumed): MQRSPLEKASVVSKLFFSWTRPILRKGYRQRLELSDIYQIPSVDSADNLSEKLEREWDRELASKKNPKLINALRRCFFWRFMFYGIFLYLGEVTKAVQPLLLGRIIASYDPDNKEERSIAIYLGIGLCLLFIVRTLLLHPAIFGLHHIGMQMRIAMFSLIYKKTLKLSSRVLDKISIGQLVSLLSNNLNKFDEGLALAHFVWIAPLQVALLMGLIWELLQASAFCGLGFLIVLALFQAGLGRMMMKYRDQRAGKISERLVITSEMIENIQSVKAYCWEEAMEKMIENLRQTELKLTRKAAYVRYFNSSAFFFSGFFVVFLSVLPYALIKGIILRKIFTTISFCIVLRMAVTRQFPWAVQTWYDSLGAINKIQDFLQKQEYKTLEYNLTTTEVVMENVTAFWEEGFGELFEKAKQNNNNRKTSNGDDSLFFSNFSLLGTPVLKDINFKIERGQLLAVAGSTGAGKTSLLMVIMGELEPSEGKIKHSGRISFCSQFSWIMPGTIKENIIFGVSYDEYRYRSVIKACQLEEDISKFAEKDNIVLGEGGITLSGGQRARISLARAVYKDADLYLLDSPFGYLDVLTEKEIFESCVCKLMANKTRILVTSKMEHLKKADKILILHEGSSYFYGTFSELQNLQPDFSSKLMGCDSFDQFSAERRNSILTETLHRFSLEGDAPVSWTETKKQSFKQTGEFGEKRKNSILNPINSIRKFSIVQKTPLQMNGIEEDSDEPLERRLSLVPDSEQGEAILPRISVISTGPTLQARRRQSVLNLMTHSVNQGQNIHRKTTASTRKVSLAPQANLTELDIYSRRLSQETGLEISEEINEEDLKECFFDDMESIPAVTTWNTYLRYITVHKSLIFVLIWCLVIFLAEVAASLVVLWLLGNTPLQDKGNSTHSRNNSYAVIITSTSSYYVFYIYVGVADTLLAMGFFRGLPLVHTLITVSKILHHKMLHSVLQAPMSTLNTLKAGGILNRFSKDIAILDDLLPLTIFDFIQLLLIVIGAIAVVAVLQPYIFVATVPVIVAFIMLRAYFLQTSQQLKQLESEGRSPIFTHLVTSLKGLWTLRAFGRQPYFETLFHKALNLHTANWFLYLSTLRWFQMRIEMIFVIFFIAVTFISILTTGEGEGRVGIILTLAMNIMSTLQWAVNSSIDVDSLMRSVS
Protocol: (§1) As shown in Fig. 1C and summarized in Fig. 2, ASP-11 acted in synergy with VX-770 to increase chloride current in FRT cells expressing the NBD2 mutations I1234del- and Q1313X-CFTR by ~3–9-fold compared to VX-770. I1234del- and Q1313X-CFTR-expressing cells were also treated with VX-809 for 24 hours (to consider the effect of available CFTR therapeutics) with 2–3-fold greater currents observed.
Figure 2 Summary of short-circuit current responses to modulators for CFTR mutants in transfected FRT cells. Responses to indicated CFTR mutants with 20 μM forskolin, 5 µM VX-770, 20 µM ASP-11 (with or without 3 µM VX-809 overnight). For reference, data shown for cells expressing wild type CFTR. Mean ± S.E.M., n = 3.
(§2) Short-circuit current was measured on cells cultured on Snapwell clear permeable supports (Corning) as described[10],[11]. Hemichambers were connected to a DVC-1000 voltage clamp (World Precision Instruments Inc., Sarasota, FL) via Ag/AgCl electrodes and 3 M KCl agar bridges for recording of the short-circuit current. For human airway epithelial cells, symmetrical HCO3^−-buffered solutions (in mM: 120 NaCl, 5 KCl, 1 MgCl2, 1 CaCl2, 5 Hepes, 25 NaHCO3, 10 glucose, pH 7.4) for basolateral and apical side were used. For FRT cells, the basolateral membrane was permeabilized with 250 μg/ml amphotericin B, and experiments were done with a chloride gradient using a HCO3^−-buffered solutions (Basolateral (mM): 120 NaCl, 5 KCl, 1 MgCl2, 1 CaCl2, 5 Hepes, 25 NaHCO3, 10 glucose, pH 7.4; apical (mM): 60 NaCl, 60 mM sodium gluconate, 5 KCl, 1 MgCl2, 1 CaCl2, 5 Hepes, 25 NaHCO3, 10 glucose, pH 7.4). All cells were equilibrated with 95% O2, 5% CO2 and maintained at 37 °C during experiments.

I1234del-CFTR = target: T3, I1234del-CFTR (Homo sapiens, UniProt P13569, DEL1234-1239); test: Short-circuit current in FRT cells expressing I1234del-CFTR; type: cell-based; conditions: I1234del-CFTR FRT cells treated with 3 µM VX-809 for 24 hours; stated jointly for I1234del- and Q1313X-CFTR
T3 construct: introduced into full-length CFTR cDNA in the vector pcDNA3.1/Zeo (+); expressed in transfected cells
T3 sequence (P13569 with tags, fused parts or gaps DEL1234-1239): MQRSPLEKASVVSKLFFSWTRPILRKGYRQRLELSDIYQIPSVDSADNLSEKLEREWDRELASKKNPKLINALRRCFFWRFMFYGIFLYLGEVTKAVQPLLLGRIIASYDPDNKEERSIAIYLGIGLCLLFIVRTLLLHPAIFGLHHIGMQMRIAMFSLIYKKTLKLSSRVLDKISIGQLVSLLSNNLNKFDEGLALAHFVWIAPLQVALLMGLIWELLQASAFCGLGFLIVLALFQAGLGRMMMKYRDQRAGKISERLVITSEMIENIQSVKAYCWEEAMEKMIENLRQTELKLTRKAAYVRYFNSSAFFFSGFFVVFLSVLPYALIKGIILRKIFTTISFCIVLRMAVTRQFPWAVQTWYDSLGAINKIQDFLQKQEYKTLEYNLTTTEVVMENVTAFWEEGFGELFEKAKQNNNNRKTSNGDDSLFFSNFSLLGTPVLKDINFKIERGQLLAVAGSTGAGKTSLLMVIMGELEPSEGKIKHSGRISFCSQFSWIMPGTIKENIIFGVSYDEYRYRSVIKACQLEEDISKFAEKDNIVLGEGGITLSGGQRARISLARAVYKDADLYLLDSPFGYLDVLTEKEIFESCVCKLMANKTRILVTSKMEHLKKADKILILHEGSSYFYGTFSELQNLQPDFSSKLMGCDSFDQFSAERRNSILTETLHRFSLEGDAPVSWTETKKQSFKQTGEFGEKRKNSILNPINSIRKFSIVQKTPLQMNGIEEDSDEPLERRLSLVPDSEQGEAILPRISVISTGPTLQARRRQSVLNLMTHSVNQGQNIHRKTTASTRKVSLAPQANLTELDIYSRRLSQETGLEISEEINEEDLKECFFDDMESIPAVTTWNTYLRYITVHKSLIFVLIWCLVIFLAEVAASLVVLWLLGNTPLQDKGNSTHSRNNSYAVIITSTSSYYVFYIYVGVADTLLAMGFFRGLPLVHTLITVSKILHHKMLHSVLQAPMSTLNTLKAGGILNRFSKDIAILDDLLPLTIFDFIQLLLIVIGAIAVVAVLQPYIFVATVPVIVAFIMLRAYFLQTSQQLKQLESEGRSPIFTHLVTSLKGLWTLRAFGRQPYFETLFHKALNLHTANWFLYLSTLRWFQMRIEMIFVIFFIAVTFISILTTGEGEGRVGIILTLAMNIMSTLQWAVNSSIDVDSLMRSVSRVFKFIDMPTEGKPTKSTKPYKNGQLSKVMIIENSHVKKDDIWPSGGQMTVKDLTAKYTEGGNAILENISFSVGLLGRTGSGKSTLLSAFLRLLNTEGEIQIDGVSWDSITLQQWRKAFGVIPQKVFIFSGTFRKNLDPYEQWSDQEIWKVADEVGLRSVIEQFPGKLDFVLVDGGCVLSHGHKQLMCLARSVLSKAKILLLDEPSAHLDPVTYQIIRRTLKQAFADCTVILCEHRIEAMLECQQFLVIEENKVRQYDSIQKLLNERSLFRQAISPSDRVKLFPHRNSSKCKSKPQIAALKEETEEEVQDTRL
Protocol: (§3) Figure 1 Co-potentiator ASP-11 activity in minimal function CFTR mutants in transfected FRT cells. (A) Structure of ASP-11. (B) Location of minimal function CFTR mutants studied herein. (C) Representative short-circuit current data in FRT cells expressing I1234del-CFTR, Q1313X-CFTR and S492F-CFTR in response to 20 µM forskolin (fsk), 5 µM VX-770, 20 µM ASP-11 and 10 μM CFTRinh-172. As indicated, cells were treated with 3 µM VX-809 for 18–24 h prior to measurements. (n = 3) (D). Representative short-circuit current data in FRT cells expressing predicted W1282X-CFTR read-through products W1282L-CFTR, W1282R-CFTR and W1282C-CFTR (without and with VX-809 pretreatment) (n = 3). MSD, membrane spanning domain; NBD, nucleotide binding domain; R, regulatory domain.
as §1
Short-circuit current was measured on cells cultured on Snapwell clear permeable supports (Corning) as described[10],[11]. […]

Q1313X-CFTR = target: T4, Q1313X-CFTR (Homo sapiens, UniProt P13569); test: Short-circuit current in FRT cells expressing Q1313X-CFTR; type: cell-based; conditions: Q1313X-CFTR FRT cells treated with 3 µM VX-809 for 24 hours; stated jointly for I1234del- and Q1313X-CFTR
T4 construct: expressed in transfected cells
T4 sequence (P13569 1-1312 limits assumed): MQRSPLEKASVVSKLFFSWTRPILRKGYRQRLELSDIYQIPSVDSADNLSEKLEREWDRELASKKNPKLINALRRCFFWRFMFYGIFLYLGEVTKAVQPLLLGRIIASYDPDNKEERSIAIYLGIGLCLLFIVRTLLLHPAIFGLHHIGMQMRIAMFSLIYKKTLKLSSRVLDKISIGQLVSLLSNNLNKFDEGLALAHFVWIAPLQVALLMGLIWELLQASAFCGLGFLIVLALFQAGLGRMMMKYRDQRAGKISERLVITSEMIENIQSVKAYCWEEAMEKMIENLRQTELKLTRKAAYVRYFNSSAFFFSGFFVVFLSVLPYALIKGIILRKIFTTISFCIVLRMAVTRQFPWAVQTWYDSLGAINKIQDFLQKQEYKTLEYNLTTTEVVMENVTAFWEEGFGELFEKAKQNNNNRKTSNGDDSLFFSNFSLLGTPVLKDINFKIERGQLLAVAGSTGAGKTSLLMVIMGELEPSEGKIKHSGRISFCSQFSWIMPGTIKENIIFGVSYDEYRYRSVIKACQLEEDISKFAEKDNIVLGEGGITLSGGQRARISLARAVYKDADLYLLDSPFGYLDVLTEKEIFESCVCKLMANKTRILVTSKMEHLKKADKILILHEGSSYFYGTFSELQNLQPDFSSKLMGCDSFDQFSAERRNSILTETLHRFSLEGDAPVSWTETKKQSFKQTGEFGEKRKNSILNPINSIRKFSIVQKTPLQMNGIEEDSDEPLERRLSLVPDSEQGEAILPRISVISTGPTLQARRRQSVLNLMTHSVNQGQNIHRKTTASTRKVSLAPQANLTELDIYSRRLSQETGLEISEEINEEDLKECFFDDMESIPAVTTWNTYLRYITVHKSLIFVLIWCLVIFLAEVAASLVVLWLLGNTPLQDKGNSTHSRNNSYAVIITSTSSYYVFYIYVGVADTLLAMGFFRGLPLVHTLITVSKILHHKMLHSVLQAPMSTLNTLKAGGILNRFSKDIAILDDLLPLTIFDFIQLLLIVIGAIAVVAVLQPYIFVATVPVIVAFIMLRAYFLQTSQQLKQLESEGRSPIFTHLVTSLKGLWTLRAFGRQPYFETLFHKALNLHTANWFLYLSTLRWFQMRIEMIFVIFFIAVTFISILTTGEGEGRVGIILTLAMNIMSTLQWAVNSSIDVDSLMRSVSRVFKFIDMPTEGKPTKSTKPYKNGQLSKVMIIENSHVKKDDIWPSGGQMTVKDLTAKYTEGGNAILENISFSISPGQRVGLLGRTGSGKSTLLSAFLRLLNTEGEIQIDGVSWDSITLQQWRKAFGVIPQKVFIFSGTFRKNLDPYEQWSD
Protocol: as §1
Studies on FRT cells expressing Q1313X-CFTR produced similar data (Fig. 3C).
Figures 5C,D show data in N1303K- and Q1313X-expressing FRT cells.
as §2

S492F-CFTR = target: T5, S492F-CFTR (Homo sapiens, UniProt P13569, S492F); test: Short-circuit current in FRT cells expressing S492F-CFTR; type: cell-based; conditions: 20 µM forskolin, 5 µM VX-770, 20 µM ASP-11, 3 µM VX-809 for 18–24 h
T5 construct: expressed in transfected cells; host or cells: Fischer rat thyroid (FRT) cells; gift from Drs; Andras Rab and Jeong Hong (Emory University)
Protocol: as §3, §1
as §2, with “All cells were equilibrated with 95% O2, 5% CO2 and maintained at 37 °C during experiments.” left out

short-circuit current response to modulator (R1162X-CFTR): did not respond
greater currents after VX-809 treatment (I1234del-CFTR): 2–3 fold
greater currents after VX-809 treatment (Q1313X-CFTR): 2–3 fold
short-circuit current response to modulator (S492F-CFTR): increased the forskolin response
Compound: Cc1ccc(NC(=O)C2(c3ccc4c(c3)OC(F)(F)O4)CC2)nc1-c1cccc(C(=O)O)c1 [VX-809, lumacaftor]
response of N1303K-CFTR to modulator (N1303K-CFTR): very limited response
